This note sets out measurements from patent publication US20240209001A1, “HETEROCYCLIC DERIVATIVES AS JANUS KINASE INHIBITORS” (CHIESI FARMACEUTICI S.P. A., priority 2021, published 2024).

One test addresses JAK 1 (Homo sapiens (Human), UniProt P23458). In words: Biochemical potency on JAK1, TR-FRET LANCE Ultra kinase assay (compounds 1-92). The settings on record: ATP at Km, read-out: JAK1 inhibitory activity (pIC50 class) (converted). As to the method:
(§1) Biochemical Potency on JAK1, JAK2, JAK3 and Tyk2 Assay Principle The objective of this study was to assess the capability of compounds to inhibit all 4 JAK isoforms activity in a cell-free environment. Assay for JAK 1, JAK 2, JAK 3 and TYK2 were performed by Time-resolved fluorescence resonance energy transfer (TR-FRET) technology. It consists in the interaction of two labelled binding partners detected by the energy transfer from an excited donor to an acceptor dye and measurement of light emission by the acceptor dye. LANCE Ultra kinase assay was used. In presence of JAK 1, JAK 2, JAK 3 and TYK2 kinases and ATP (corresponding to Km), the ULight peptide substrate (LANCE Ulight-JAK-1 ([…]) Peptide, Perkin Elmer, TRF0121) is phosphorylated. It is then captured by Eu-anti-phospho-substrate antibody (LANCE Eu-W1024 Anti-phosphotyrosine (PT66), Perkin Elmer, AD0069), which bring the Eu-chelate donor and ULight acceptor dyes into close proximity. Upon excitation at 320 nm, the Eu-chelate transfers its energy to the ULight dye, resulting in a fluorescent light emission at 665 nm. Compound Testing Serial dilutions of compounds in pure DMSO are prepared from 10 mM DMSO stock solutions. Compounds were tested in 384-well plate for 11 consecutive 5-fold dilutions starting from 20 μM highest concentration (20 μM-[…]). 200 nL of compound were transferred from mother plate to test plate by using Mosquito (TTP labtech). Assay was performed in 384-well Perkin Elmer test plate in 20 μL assay volume (kinase reaction) and 40 μL total volume (stopping reagent and antibody detection reagents). In 10 μL of substrate solution (peptide+ATP) 30/50/20/10 nM of peptide and 20/0.7/0.2/12 μM of ATP were added for JAK 1, JAK 2, JAK 3 and TYK2 respectively. 10 μL of enzyme solution was added to kinase reaction at these concentrations: 0.15/0.083/0.025/0.144 ng/μL of JAK 1, JAK 2, JAK 3 and TYK2 respectively. After shaking and 1.5 h of incubation at r.t., 20 μL of Stop (10 μL EDTA) and Detection mixture (10 μL Europium-anti-phospho antibody, final: 0.5 nM) were added. Reading was performed after 1 h of incubation on a EnVision 2104 reader (Perkin Elmer). Calculation of IC50 data, curves and QC analysis was performed by using Excel tool and GraphPadPrism software, v9. Briefly, individual concentration-effect curves are generated by plotting the logarithm of the tested concentration of tested compounds (X) vs. corresponding percent inhibition values (Y) using least squares (ordinary) fit. Best fit IC50 values are calculated using Log(inhibitor) vs. normalized response-Variable slope equation, where Y=100/(1+10^((Log IC50-X)*HillSlope)). QC criteria parameters (Z', S:B, R2, HillSlope) were checked for every IC50 curve. Calculation of IC50 data, curves and QC analysis were made using Excel tools and GraphPadPrism software. QC criteria parameters: Z'≥0.5, Hill Slope range 0.5 to 5, S:B>2.

Another test deals with JAK 2 (Homo sapiens (Human), UniProt O60674). In words: Biochemical potency on JAK2, TR-FRET LANCE Ultra kinase assay (compounds 1-92). The conditions noted are these: ATP at Km, read-out: JAK2 inhibitory activity (pIC50 class) (converted). The protocol: as §1
The target of the next test is JAK 3 (Homo sapiens (Human), UniProt P52333). In words: Biochemical potency on JAK3, TR-FRET LANCE Ultra kinase assay (compounds 1-92). The settings on record: ATP at Km, read-out: JAK3 inhibitory activity (pIC50 class) (converted). As to the method: as §1
The next test concerns the target TYK2 (Homo sapiens (Human), UniProt P29597). In words: Biochemical potency on Tyk2, TR-FRET LANCE Ultra kinase assay (compounds 1-92). The settings on record: ATP at Km, read-out: Tyk2 inhibitory activity (pIC50 class) (converted). The protocol:
as §1

Sequence of JAK 1 (P23458 whole entry, canonical isoform): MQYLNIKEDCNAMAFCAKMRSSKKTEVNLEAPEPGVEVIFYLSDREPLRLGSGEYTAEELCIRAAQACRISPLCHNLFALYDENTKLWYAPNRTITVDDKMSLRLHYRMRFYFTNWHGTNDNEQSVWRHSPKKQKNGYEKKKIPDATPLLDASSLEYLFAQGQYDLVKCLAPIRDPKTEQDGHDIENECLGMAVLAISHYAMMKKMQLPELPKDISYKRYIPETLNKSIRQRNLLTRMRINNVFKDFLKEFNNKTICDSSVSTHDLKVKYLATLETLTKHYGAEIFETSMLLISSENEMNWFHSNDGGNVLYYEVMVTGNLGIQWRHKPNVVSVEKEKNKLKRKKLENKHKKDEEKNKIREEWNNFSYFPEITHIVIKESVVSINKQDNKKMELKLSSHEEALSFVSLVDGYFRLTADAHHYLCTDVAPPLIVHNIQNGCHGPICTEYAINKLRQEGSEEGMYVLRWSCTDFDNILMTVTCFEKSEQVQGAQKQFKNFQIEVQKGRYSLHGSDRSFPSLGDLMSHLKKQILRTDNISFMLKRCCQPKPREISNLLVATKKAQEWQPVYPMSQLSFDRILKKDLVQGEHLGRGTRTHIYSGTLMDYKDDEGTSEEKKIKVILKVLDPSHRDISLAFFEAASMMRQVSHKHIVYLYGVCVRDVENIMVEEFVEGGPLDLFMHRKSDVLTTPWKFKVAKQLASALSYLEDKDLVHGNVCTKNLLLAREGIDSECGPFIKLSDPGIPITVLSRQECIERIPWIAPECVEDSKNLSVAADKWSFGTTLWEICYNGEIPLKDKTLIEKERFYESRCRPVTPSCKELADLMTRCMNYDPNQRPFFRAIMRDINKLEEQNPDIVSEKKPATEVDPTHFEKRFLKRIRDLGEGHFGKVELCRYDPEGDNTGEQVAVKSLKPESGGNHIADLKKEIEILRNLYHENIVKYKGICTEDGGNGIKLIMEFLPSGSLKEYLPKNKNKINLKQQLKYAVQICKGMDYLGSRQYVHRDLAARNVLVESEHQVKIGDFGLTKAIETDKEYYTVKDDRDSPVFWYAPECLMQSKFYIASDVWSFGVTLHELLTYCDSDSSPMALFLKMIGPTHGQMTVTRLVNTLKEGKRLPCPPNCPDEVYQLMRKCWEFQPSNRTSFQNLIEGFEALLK
Sequence of JAK 3 (P52333 whole entry): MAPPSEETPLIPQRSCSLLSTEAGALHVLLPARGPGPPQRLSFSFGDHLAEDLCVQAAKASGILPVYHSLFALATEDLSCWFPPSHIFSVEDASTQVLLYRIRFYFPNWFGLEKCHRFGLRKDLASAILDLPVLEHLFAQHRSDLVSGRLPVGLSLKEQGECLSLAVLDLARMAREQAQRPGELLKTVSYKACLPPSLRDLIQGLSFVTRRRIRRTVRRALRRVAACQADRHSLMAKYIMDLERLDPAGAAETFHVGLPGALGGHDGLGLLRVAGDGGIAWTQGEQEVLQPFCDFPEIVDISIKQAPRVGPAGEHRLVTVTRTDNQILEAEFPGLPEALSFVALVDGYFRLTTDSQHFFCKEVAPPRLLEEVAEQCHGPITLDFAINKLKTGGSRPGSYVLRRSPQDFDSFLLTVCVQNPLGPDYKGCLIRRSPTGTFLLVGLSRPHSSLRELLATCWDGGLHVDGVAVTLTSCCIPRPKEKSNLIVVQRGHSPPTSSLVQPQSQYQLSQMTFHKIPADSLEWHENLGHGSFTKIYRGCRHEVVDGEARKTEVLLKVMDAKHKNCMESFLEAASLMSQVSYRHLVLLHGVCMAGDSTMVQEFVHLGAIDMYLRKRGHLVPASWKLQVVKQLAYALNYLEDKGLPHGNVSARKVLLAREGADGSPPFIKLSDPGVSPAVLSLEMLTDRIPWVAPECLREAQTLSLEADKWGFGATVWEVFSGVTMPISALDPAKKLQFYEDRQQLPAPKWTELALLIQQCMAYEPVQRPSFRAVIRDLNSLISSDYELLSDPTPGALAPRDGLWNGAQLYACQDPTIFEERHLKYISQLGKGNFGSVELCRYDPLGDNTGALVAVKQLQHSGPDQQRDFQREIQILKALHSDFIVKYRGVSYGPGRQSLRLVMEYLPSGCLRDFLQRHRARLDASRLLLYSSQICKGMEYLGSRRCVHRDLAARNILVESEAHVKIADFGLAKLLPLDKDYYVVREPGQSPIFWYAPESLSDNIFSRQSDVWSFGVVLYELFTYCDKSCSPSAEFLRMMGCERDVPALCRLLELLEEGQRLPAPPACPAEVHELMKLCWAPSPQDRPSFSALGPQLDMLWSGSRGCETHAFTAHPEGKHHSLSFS
Sequence of TYK2 (P29597 whole entry): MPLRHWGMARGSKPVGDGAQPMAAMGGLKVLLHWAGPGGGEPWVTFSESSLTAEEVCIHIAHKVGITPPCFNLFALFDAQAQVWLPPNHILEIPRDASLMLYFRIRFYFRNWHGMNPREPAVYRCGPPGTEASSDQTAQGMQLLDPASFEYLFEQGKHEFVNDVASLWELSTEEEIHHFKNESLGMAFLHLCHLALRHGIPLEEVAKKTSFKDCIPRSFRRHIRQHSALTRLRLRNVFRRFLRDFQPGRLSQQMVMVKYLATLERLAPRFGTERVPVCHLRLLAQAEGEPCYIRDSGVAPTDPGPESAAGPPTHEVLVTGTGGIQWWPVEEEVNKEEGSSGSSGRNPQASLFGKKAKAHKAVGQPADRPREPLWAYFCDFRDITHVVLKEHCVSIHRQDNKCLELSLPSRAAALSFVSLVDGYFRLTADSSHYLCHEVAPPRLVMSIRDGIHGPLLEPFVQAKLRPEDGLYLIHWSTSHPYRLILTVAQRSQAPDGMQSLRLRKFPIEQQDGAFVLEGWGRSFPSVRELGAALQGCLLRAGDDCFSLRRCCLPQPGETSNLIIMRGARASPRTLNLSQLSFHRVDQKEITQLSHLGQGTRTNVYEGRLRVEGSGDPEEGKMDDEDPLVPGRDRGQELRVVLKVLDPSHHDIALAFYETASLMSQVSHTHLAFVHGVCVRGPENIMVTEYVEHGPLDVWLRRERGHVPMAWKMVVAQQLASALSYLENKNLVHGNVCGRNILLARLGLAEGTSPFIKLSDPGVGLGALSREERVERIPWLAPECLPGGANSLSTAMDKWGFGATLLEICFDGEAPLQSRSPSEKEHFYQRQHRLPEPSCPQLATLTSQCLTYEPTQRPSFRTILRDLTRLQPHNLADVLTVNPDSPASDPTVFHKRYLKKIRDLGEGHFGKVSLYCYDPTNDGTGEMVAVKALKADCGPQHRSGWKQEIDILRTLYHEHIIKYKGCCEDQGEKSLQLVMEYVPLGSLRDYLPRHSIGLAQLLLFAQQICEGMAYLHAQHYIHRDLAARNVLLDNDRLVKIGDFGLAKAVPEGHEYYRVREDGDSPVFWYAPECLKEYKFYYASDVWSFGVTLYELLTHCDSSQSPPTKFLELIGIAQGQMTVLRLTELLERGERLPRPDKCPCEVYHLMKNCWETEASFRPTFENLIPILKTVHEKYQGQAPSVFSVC
Sequence of JAK 2 (O60674 whole entry): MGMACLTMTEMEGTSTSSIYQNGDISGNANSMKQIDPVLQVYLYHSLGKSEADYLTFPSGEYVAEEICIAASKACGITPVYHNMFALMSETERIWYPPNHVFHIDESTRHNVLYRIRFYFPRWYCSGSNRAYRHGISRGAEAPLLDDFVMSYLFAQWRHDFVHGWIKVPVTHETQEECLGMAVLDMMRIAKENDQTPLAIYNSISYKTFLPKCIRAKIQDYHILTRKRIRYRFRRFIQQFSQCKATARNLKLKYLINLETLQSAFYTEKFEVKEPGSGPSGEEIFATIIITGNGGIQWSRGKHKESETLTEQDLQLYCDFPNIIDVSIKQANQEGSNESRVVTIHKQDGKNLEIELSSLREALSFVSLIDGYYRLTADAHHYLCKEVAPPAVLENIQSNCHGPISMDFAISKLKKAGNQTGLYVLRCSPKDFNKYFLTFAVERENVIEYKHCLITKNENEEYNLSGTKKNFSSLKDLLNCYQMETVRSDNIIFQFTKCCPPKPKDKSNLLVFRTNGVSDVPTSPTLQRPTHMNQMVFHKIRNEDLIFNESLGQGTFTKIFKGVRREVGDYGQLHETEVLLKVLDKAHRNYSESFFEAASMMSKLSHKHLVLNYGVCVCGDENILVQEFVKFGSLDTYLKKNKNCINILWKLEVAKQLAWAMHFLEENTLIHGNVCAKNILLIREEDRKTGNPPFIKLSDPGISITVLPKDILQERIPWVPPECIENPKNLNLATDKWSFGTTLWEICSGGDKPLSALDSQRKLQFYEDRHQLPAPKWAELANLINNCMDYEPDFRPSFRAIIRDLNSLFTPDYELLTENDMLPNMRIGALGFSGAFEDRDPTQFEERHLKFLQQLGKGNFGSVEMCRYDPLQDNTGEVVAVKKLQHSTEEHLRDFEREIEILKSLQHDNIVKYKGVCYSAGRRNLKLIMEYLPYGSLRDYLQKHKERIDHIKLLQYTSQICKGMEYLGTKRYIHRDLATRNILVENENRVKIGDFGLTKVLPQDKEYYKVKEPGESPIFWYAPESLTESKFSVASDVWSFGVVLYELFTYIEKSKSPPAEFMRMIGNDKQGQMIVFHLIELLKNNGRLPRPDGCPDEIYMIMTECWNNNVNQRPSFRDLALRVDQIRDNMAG

For the molecule `COc1cc(NS(C)(=O)=O)ccc1-n1nc(NCC2CN(C)CCO2)c2cnc(-c3cnn4cccnc34)cc21` (racemic) [Example 28, N-(3-methoxy-4-(3-(((4-methylmorpholin-2-yl)methyl)amino)-6-(pyrazolo[1,5-a]pyrimidin-3-yl)-1H-pyrazolo[4,3-c]pyridin-1-yl)phenyl)methanesulfonamide], the IC50 at JAK 1 is ≤ 5.01 nM; at JAK 2 it was ≤ 5.01 nM; at JAK 3, ≤ 5.01 nM; on TYK2, 5.01 to 50.1 nM.

As to `COc1cc(NS(C)(=O)=O)ccc1-n1nc(NC(=O)C2CCN(C)C2)c2cnc(-c3cnn4cccnc34)cc21` (racemic) [Example 42, N-(1-(2-methoxy-4-(methylsulfonamido)phenyl)-6-(pyrazolo[1,5-a]pyrimidin-3-yl)-1H-pyrazolo[4,3-c]pyridin-3-yl)-1-methylpyrrolidine-3-carboxamide], the IC50 on JAK 1, on JAK 2, at JAK 3 and on TYK2 was 5.01 to 50.1 nM in each case.

On to `COc1cc(NS(C)(=O)=O)ccc1-n1nc(C)c2cnc(-c3cnn4cccnc34)cc21` [Example 1, N-(3-methoxy-4-(3-methyl-6-(pyrazolo[1,5-a]pyrimidin-3-yl)-1H-pyrazolo[4,3-c]pyridin-1-yl)phenyl)methanesulfonamide], for which the IC50 at JAK 1 is ≤ 5.01 nM; at JAK 2 it was ≤ 5.01 nM; on JAK 3, ≤ 5.01 nM; at TYK2, 5.01 to 50.1 nM.

Consider `COc1cc(NS(=O)(=O)CC2CCCO2)ccc1-n1nc(C)c2cnc(-c3cnn4cccnc34)cc21` (stereo not shown) [Example 2, N-(3-methoxy-4-(3-methyl-6-(pyrazolo[1,5-a]pyrimidin-3-yl)-1H-pyrazolo[4,3-c]pyridin-1-yl)phenyl)-1-(tetrahydrofuran-2-yl)methanesulfonamide], for which the IC50 on JAK 1 is 5.01 to 50.1 nM; at JAK 2, ≤ 5.01 nM; on JAK 3, 5.01 to 50.1 nM; on TYK2, 5.01 to 50.1 nM.

Consider `COc1cc(NS(=O)(=O)C2CCOCC2)ccc1-n1nc(C)c2cnc(-c3cnn4cccnc34)cc21` [Example 3, N-(3-methoxy-4-(3-methyl-6-(pyrazolo[1,5-a]pyrimidin-3-yl)-1H-pyrazolo[4,3-c]pyridin-1-yl)phenyl)tetrahydro-2H-pyran-4-sulfonamide], for which the IC50 at JAK 1 is 5.01 to 50.1 nM; on JAK 2, ≤ 5.01 nM; on JAK 3 it was 5.01 to 50.1 nM; at TYK2, > 50.1 nM.

As for `CCCS(=O)(=O)Nc1ccc(-n2nc(C)c3cnc(-c4cnn5cccnc45)cc32)c(OC)c1` [Example 4, N-(3-methoxy-4-(3-methyl-6-(pyrazolo[1,5-a]pyrimidin-3-yl)-1H-pyrazolo[4,3-c]pyridin-1-yl)phenyl)propane-1-sulfonamide], the IC50 on JAK 1 is ≤ 5.01 nM; on JAK 2, ≤ 5.01 nM; at JAK 3, ≤ 5.01 nM; at TYK2 it was 5.01 to 50.1 nM.

As for `COc1cc(NS(=O)(=O)CC2CC2)ccc1-n1nc(C)c2cnc(-c3cnn4cccnc34)cc21` [Example 5, 1-cyclopropyl-N-(3-methoxy-4-(3-methyl-6-(pyrazolo[1,5-a]pyrimidin-3-yl)-1H-pyrazolo[4,3-c]pyridin-1-yl)phenyl)methanesulfonamide], the IC50 on JAK 1 is ≤ 5.01 nM; on JAK 2, ≤ 5.01 nM; at JAK 3, ≤ 5.01 nM; on TYK2, 5.01 to 50.1 nM.

With `COc1cc(NS(=O)(=O)C2CC2)ccc1-n1nc(C)c2cnc(-c3cnn4cccnc34)cc21` [Example 6, N-(3-methoxy-4-(3-methyl-6-(pyrazolo[1,5-a]pyrimidin-3-yl)-1H-pyrazolo[4,3-c]pyridin-1-yl)phenyl)cyclopropanesulfonamide], the IC50 was ≤ 5.01 nM on JAK 1, ≤ 5.01 nM on JAK 2, ≤ 5.01 nM at JAK 3 and 5.01 to 50.1 nM at TYK2.

Consider `Cc1nn(-c2ccc(NS(C)(=O)=O)cc2OC(F)F)c2cc(-c3cnn4cccnc34)ncc12` [Example 7, N-(3-(difluoromethoxy)-4-(3-methyl-6-(pyrazolo[1,5-a]pyrimidin-3-yl)-1H-pyrazolo[4,3-c]pyridin-1-yl)phenyl)methanesulfonamide], for which the IC50 on JAK 1 was ≤ 5.01 nM; on JAK 2, ≤ 5.01 nM; on JAK 3, ≤ 5.01 nM; on TYK2, 5.01 to 50.1 nM.

In the case of `COc1cc(NS(=O)(=O)C2COC2)ccc1-n1nc(C)c2cnc(-c3cnn4cccnc34)cc21` [Example 8, N-(3-methoxy-4-(3-methyl-6-(pyrazolo[1,5-a]pyrimidin-3-yl)-1H-pyrazolo[4,3-c]pyridin-1-yl)phenyl)oxetane-3-sulfonamide], the IC50 at JAK 1 is ≤ 5.01 nM; on JAK 2, ≤ 5.01 nM; at JAK 3, ≤ 5.01 nM; on TYK2, 5.01 to 50.1 nM.

`COc1cc(NS(=O)(=O)C2CCOC2)ccc1-n1nc(C)c2cnc(-c3cnn4cccnc34)cc21` (stereo not shown) [Example 9, N-(3-methoxy-4-(3-methyl-6-(pyrazolo[1,5-a]pyrimidin-3-yl)-1H-pyrazolo[4,3-c]pyridin-1-yl)phenyl)tetrahydrofuran-3-sulfonamide]: the IC50 at JAK 1 was 5.01 to 50.1 nM; on JAK 2, ≤ 5.01 nM; on JAK 3, 5.01 to 50.1 nM; at TYK2, 5.01 to 50.1 nM.

Take `COc1cc(NS(=O)(=O)c2cnn(C)c2)ccc1-n1nc(C)c2cnc(-c3cnn4cccnc34)cc21` [Example 10, N-(3-methoxy-4-(3-methyl-6-(pyrazolo[1,5-a]pyrimidin-3-yl)-1H-pyrazolo[4,3-c]pyridin-1-yl)phenyl)-1-methyl-1H-pyrazole-4-sulfonamide]: the IC50 at JAK 1 is ≤ 5.01 nM; on JAK 2, ≤ 5.01 nM; at JAK 3, 5.01 to 50.1 nM; at TYK2, 5.01 to 50.1 nM.

As to `COc1cc(NS(C)(=O)=O)cnc1-n1nc(C)c2cnc(-c3cnn4cccnc34)cc21` [Example 11, N-(5-methoxy-6-(3-methyl-6-(pyrazolo[1,5-a]pyrimidin-3-yl)-1H-pyrazolo[4,3-c]pyridin-1-yl)pyridin-3-yl)methanesulfonamide], the IC50 is ≤ 5.01 nM on JAK 1, ≤ 5.01 nM on JAK 2, ≤ 5.01 nM at JAK 3 and > 50.1 nM on TYK2.

Consider `COc1cc(NS(C)(=O)=O)c(F)cc1-n1nc(C)c2cnc(-c3cnn4cccnc34)cc21` [Example 12, N-(2-fluoro-5-methoxy-4-(3-methyl-6-(pyrazolo[1,5-a]pyrimidin-3-yl)-1H-pyrazolo[4,3-c]pyridin-1-yl)phenyl)methanesulfonamide], for which the IC50 on JAK 1 was 5.01 to 50.1 nM; at JAK 2, 5.01 to 50.1 nM; at JAK 3, 5.01 to 50.1 nM; at TYK2 it was > 50.1 nM.

For the molecule `COc1cc(NS(=O)(=O)CCC(N)=O)ccc1-n1nc(C)c2cnc(-c3cnn4cccnc34)cc21` [Example 13, 3-(N-(3-methoxy-4-(3-methyl-6-(pyrazolo[1,5-a]pyrimidin-3-yl)-1H-pyrazolo[4,3-c]pyridin-1-yl)phenyl)sulfamoyl)propanamide], the IC50 on JAK 1 was ≤ 5.01 nM; on JAK 2, ≤ 5.01 nM; at JAK 3 it was ≤ 5.01 nM; on TYK2, 5.01 to 50.1 nM.

In the case of `COc1cc(NS(=O)(=O)CC(N)=O)ccc1-n1nc(C)c2cnc(-c3cnn4cccnc34)cc21` [Example 14, 2-(N-(3-methoxy-4-(3-methyl-6-(pyrazolo[1,5-a]pyrimidin-3-yl)-1H-pyrazolo[4,3-c]pyridin-1-yl)phenyl)sulfamoyl)acetamide], the IC50 at JAK 1 is ≤ 5.01 nM; on JAK 2, ≤ 5.01 nM; at JAK 3 it was ≤ 5.01 nM; on TYK2 it was 5.01 to 50.1 nM.
